According to patent US8551723B2, “Tyrosine kinase-inducible domains” (University of Delaware, priority 2010, dated 2013):

Assays:
[1] = Dissociation constant determination of peptide-Tb^3+ complexes by Tb^3+ luminescence titration; format: binding
Description: (§1) All experiments were conducted on a Photon Technology International fluorescence spectrometer model QM-3/2003 with a CW source and a Hamamatsu R928PMT using 10 nm excitation and emission slit widths. A 495 nm highpass filter (model 495FG03-25 AM-53074; Andover Corporation) was used on the emission monochromator. Spectra were acquired at room temperature with a scan rate of 1 nm per second. In dissociation constant determinations, the observed luminescence (photon counts s^−1) was not background-corrected and represents the raw fluorescence data. In the presence of buffer only (no peptide, no metal), the luminescence at 544 nm is similar to the luminescence observed in the presence of peptide at the limit of low concentrations of Tb^3+ (approximately 1.8×10^5 photon counts s^−1). Spectral data (FIGS. 3a, […]) represent the average of at least three independent trials and correspond to the averaged spectra that yielded the data points at the given Tb^3+ concentrations in the dissociation constant determination plots. Spectral data in the manuscript were background-corrected. Peptide solutions were prepared by the dilution of peptide stock solutions into buffer containing 5 mM HEPES (pH 7.8) and 100 mM NaCl (final concentrations). Spectra were acquired in 10 mm quartz fluorescence cells (Starna). Tb^3+ titrations were conducted by dilution of a Tb^3+ solution into a peptide solution. All TbCl3 solutions were standardized by titration with a standard solution of EDTA (1 mM) in the presence of xylenol orange indicator (10 μM) and sodium acetate buffer (pH 6.0, 10 mM). EDTA (1 mM) was added to 500 μL of a 1 mM Tb^3+ solution diluted from a 10 mM stock until the end point was reached; Tb^3+ concentration was determined based on 1:1 binding. Each individual emission spectrum represents an independently prepared solution of peptide and metal. The Tb^3+ emission band at 544 nm was used to evaluate metal binding.
To determine dissociation constants for Tb^3+-peptide complexes, Tb^3+ titrations were conducted in solutions of 5 mM HEPES (pH 7.8) and 100 mM NaCl. Each data point represents an independently prepared solution of peptide and metal. Observed luminescence (photon counts s^−1) at the emission maximum of 544 nm were plotted against Tb^3+ concentration to calculate the final Kd. Data points indicate the average of at least three independent titrations. Error bars indicate standard error. […] The quadratic equation solution to the dissociation constant (equation 1) was employed to generate an accurate solution to the binding equilibrium under conditions when the dissociation constant, peptide concentration, and metal concentration may be similar. For phosphorylated pKID-pTyr11, the dissociation constant was also measured in the presence of 2 mM Mg^2+ and 100 μM Ca^2+ to study the effect of these metals on Tb^3+-peptide complex formation.

[2] = Terbium luminescence spectra of non-phosphorylated versus phosphorylated peptides; details: 10 μM peptide, 10 mM HEPES (pH 7.8), 100 mM NaCl, excitation 280 nm
Description: FIGS. 3a, 3e and 3f show the luminescence spectra of 10 μM non-phosphorylated (red) and phosphorylated (blue) (a) pKID-pTyr11, (e) pKID-pTyr15a, and (f) pKID-pTyr15b, in the presence of (a, f) 20 μM Tb^3+ or (e) 80 μM Tb^3+. Experiments were conducted in water with 10 mM HEPES (pH 7.8) and 100 mM NaCl with excitation at 280 nm. […] The fold luminescence differentiation between non-phosphorylated and phosphorylated peptides depends on the relative Tb^3+ affinities of the peptides and on the Tb^3+ concentration. FIGS. 3b, 3c, and 3d show the TOCSY spectra of phosphorylated pKID-pTyr11 in the absence (red) and presence (blue) of La^3+ indicating metal-induced peptide folding: (b) H^N—Hα region; (c) H^N—Hβ region; (d) aromatic region.
as §1, with “Peptide solutions were prepared by the dilution of peptide stock solutions into buffer containing 5 mM HEPES (pH 7.8) and 100 mM NaCl (final concentrations).” left out, “Tb^3+ titrations were conducted by dilution of a Tb^3+ solution into a peptide solution. All TbCl3 solutions were standardized by titration with a standard solution of EDTA (1 mM) in the presence of xylenol orange indicator (10 μM) and sodium acetate buffer (pH 6.0, 10 mM).” left out, “Each individual emission spectrum represents an independently prepared solution of peptide and metal. The Tb^3+ emission band at 544 nm was used to evaluate metal binding.” left out

[3] = peptide-Tb^3+ complex, 10 μM peptide, 5 mM HEPES (pH 7.8), 100 mM NaCl
[4] = 10 μM peptide, footnote a: calculated by defining maximum luminescence as equal to that of the phosphorylated peptide-Tb^3+ complex (no saturation)

Ac-DKNADGWIDAApYK-NH2 [phosphorylated pKID-pTyr12]
Kd [1, 3]: 209 ± 32 µM

Ac-DKNADGWIDAYAK-NH2 [non-phosphorylated pKID-pTyr11, model tyrosine kinase-inducible domain peptide, Tyr at residue 11]
Kd [1, 3]: 1900 ± 280 µM

DKNADGWIDAEAK [EF Control-E11, control peptide with Glu at residue 11, reference compound]
Kd [1, 3]: 1820 ± 140 µM

Ac-DKNADGWIDApYAK-NH2 [phosphorylated pKID-pTyr11, pY indicates phosphotyrosine]
Tb^3+ binding in the presence of competing metals ([1]; in the presence of 100 μM Ca^2+ and 2 mM Mg^2+): identical | Kd ([1]; peptide-Tb^3+ complex, 2 μM peptide with 2 mM Mg^2+ and 100 μM Ca^2+): 30 µM | Kd ([1]; peptide-Tb^3+ complex, 2 μM peptide, 5 mM HEPES (pH 7.8), 100 mM NaCl): 32 µM | Kd [1, 3]: 54 ± 9 µM | fold greater Tb^3+ affinity than the non-phosphorylated peptide ([1]; phosphorylated versus non-phosphorylated peptide): 35 fold | fold greater luminescence of phosphorylated than non-phosphorylated peptide ([2]; 20 μM Tb^3+): 6.4 fold

Ac-DKDGDGWISPAAAKpYAK-NH2 [phosphorylated pKID-pTyr15b]
Kd [1, 3]: 47 ± 5 µM | fold greater luminescence of phosphorylated than non-phosphorylated peptide ([2]; 20 μM Tb^3+): 10.1 fold

Ac-DKNADGWIDAAYK-NH2 [non-phosphorylated pKID-pTyr12, control peptide with Tyr at residue 12]
Kd [1, 3]: 6470 µM

Ac-DKNADGWIDAAAAKYAK-NH2 [non-phosphorylated pKID-pTyr15a]
Kd [1, 4]: 3200 µM

Ac-DKDGDGWISPAAAKYAK-NH2 [non-phosphorylated pKID-pTyr15b]
Kd [1, 4]: 1930 µM

DKNADGWIDAAEK [EF Hand-E12, EF Hand consensus peptide with Glu at residue 12, reference compound]
Kd [1, 3]: 88 ± 8 µM

Ac-DKNADGWIDAAAAKpYAK-NH2 [phosphorylated pKID-pTyr15a]
Kd [1, 3]: 217 ± 21 µM | fold greater luminescence of phosphorylated than non-phosphorylated peptide ([2]; 80 μM Tb^3+): 17.6 fold
